Source: the NIST ThermoML archive (doi:10.1021/je060271a)
Where “and” joins values, the source holds several entries; their conditions need not be identical. Equal values may be shown once.

Conditions: Liquid, Vibrating tube method

CCCCCC(=O)OCC(COC(=O)CCCCC)(COC(=O)CCCCC)COC(=O)CCCCC [pentaerythritol tetrahexanoate]
Conditions | mass density
343.16 K, 33002 kPa | 980 kg/m3
343.16 K, 33028 kPa | 980.1 kg/m3
343.16 K, 33054 kPa | 980.2 kg/m3
343.16 K, 33085 kPa | 980.1 kg/m3
343.16 K, 33111 kPa | 980.2 kg/m3
343.16 K, 33138 kPa | 980.1 kg/m3
343.16 K, 33170 kPa | 980.2 kg/m3
343.16 K, 33198 kPa | 980.2 kg/m3
343.16 K, 33224 kPa | 980.2 kg/m3
343.16 K, 33250 kPa | 980.3 kg/m3
343.16 K, 33277 kPa | 980.2 kg/m3
343.16 K, 33310 kPa | 980 kg/m3
343.16 K, 33337 kPa | 980.3 kg/m3
343.16 K, 33364 kPa | 980.3 kg/m3
343.16 K, 33397 kPa | 980.3 kg/m3
343.16 K, 33424 kPa | 980.3 kg/m3
343.16 K, 33458 kPa | 980.4 kg/m3
343.16 K, 33486 kPa | 980.4 kg/m3
343.16 K, 33515 kPa | 980.2 kg/m3
343.16 K, 33551 kPa | 980.4 kg/m3
343.16 K, 33582 kPa | 980.5 kg/m3
343.16 K, 33613 kPa | 980.4 kg/m3
343.16 K, 33643 kPa | 980.7 kg/m3
343.16 K, 33678 kPa | 980.5 kg/m3
343.16 K, 33700 kPa | 980.5 kg/m3
343.16 K, 33718 kPa | 980.5 kg/m3
343.16 K, 33738 kPa | 980.5 kg/m3
343.16 K, 33761 kPa | 980.6 kg/m3
343.16 K, 33781 kPa | 980.6 kg/m3
343.16 K, 33806 kPa | 980.6 kg/m3
343.16 K, 33826 kPa | 980.6 kg/m3
343.16 K, 33846 kPa | 980.6 kg/m3
343.16 K, 33868 kPa | 980.6 kg/m3
343.16 K, 33883 kPa | 980.7 kg/m3
343.16 K, 33898 kPa | 980.7 kg/m3
343.16 K, 33914 kPa | 980.8 kg/m3
343.16 K, 33932 kPa | 980.6 kg/m3
343.16 K, 33948 kPa | 980.7 kg/m3
343.16 K, 33966 kPa | 980.7 kg/m3
343.16 K, 33982 kPa | 980.5 kg/m3
343.16 K, 33995 kPa | 980.7 kg/m3
343.16 K, 34005 kPa | 980.7 kg/m3
343.16 K, 34016 kPa | 980.8 kg/m3
343.16 K, 34026 kPa | 980.7 kg/m3
343.16 K, 34034 kPa | 980.8 kg/m3
343.16 K, 34035 kPa | 980.7 kg/m3
343.16 K, 34036 kPa | 980.8 kg/m3
343.16 K, 34037 kPa | 980.9 kg/m3 and 980.6 kg/m3
343.16 K, 34047 kPa | 980.7 kg/m3
343.16 K, 34048 kPa | 980.7 kg/m3
343.16 K, 34058 kPa | 980.8 kg/m3
343.16 K, 34091 kPa | 980.7 kg/m3
343.16 K, 34101 kPa | 980.8 kg/m3
343.16 K, 34114 kPa | 980.8 kg/m3
343.16 K, 34125 kPa | 980.7 kg/m3
343.16 K, 34137 kPa | 980.8 kg/m3
343.16 K, 34151 kPa | 980.7 kg/m3
343.16 K, 34163 kPa | 980.8 kg/m3
343.16 K, 34177 kPa | 980.7 kg/m3
343.16 K, 34189 kPa | 980.8 kg/m3
343.16 K, 34190 kPa | 980.9 kg/m3
343.16 K, 34198 kPa | 980.8 kg/m3
343.16 K, 34203 kPa | 980.8 kg/m3
343.16 K, 34211 kPa | 980.7 kg/m3
343.16 K, 34217 kPa | 980.8 kg/m3
343.16 K, 34223 kPa | 980.8 kg/m3
343.16 K, 34231 kPa | 980.7 kg/m3
343.16 K, 34237 kPa | 980.9 kg/m3
343.16 K, 34243 kPa | 980.7 kg/m3
343.16 K, 34248 kPa | 980.8 kg/m3
343.16 K, 34251 kPa | 980.9 kg/m3
343.16 K, 34253 kPa | 980.9 kg/m3
343.16 K, 34254 kPa | 980.8 kg/m3 and 980.9 kg/m3
343.16 K, 34255 kPa | 980.8 kg/m3 and 980.9 kg/m3
343.16 K, 34256 kPa | 980.8 kg/m3 and 980.9 kg/m3 and 980.7 kg/m3
343.16 K, 34257 kPa | 980.9 kg/m3
343.16 K, 34258 kPa | 980.8 kg/m3 and 980.7 kg/m3
343.16 K, 34259 kPa | 981 kg/m3
343.16 K, 34262 kPa | 980.9 kg/m3
343.16 K, 34263 kPa | 980.8 kg/m3 and 980.9 kg/m3
343.16 K, 34264 kPa | 980.9 kg/m3
343.16 K, 34265 kPa | 980.9 kg/m3 and 980.8 kg/m3
343.16 K, 34266 kPa | 980.8 kg/m3 and 980.9 kg/m3
343.16 K, 34267 kPa | 980.8 kg/m3 and 981 kg/m3 and 980.9 kg/m3
343.16 K, 34268 kPa | 980.8 kg/m3 and 980.9 kg/m3
343.16 K, 34269 kPa | 980.8 kg/m3 and 980.9 kg/m3
343.16 K, 34270 kPa | 980.9 kg/m3 and 980.8 kg/m3
343.16 K, 34271 kPa | 980.8 kg/m3
343.16 K, 34272 kPa | 981 kg/m3
343.16 K, 34273 kPa | 980.9 kg/m3
343.16 K, 34274 kPa | 980.9 kg/m3
343.16 K, 34275 kPa | 980.8 kg/m3
343.16 K, 34276 kPa | 980.9 kg/m3
343.16 K, 34277 kPa | 980.9 kg/m3
343.16 K, 34278 kPa | 980.9 kg/m3
343.16 K, 34279 kPa | 980.8 kg/m3
343.16 K, 34283 kPa | 980.9 kg/m3
343.16 K, 34284 kPa | 980.9 kg/m3 and 980.8 kg/m3 and 981 kg/m3
343.16 K, 34285 kPa | 980.9 kg/m3
343.16 K, 34286 kPa | 980.8 kg/m3
343.16 K, 34287 kPa | 980.9 kg/m3 and 981 kg/m3
343.16 K, 34288 kPa | 980.9 kg/m3
343.16 K, 34289 kPa | 980.9 kg/m3
343.16 K, 34290 kPa | 980.8 kg/m3 and 980.9 kg/m3
343.16 K, 34291 kPa | 980.9 kg/m3
343.16 K, 34292 kPa | 980.9 kg/m3
343.16 K, 34293 kPa | 980.9 kg/m3
343.16 K, 34294 kPa | 980.9 kg/m3
343.16 K, 34295 kPa | 980.8 kg/m3
343.16 K, 34296 kPa | 980.9 kg/m3
343.16 K, 34297 kPa | 980.9 kg/m3
343.16 K, 34298 kPa | 980.9 kg/m3 and 981 kg/m3
343.16 K, 34300 kPa | 980.9 kg/m3
343.16 K, 34301 kPa | 980.8 kg/m3
343.16 K, 34303 kPa | 980.9 kg/m3
343.16 K, 34305 kPa | 980.9 kg/m3
343.16 K, 34307 kPa | 980.9 kg/m3
343.16 K, 34310 kPa | 981 kg/m3
343.16 K, 34312 kPa | 980.8 kg/m3
343.16 K, 34315 kPa | 980.9 kg/m3
343.16 K, 34319 kPa | 980.9 kg/m3
343.16 K, 34322 kPa | 980.9 kg/m3
343.16 K, 34326 kPa | 980.9 kg/m3
343.16 K, 34332 kPa | 980.8 kg/m3
343.16 K, 34336 kPa | 980.8 kg/m3
343.16 K, 34342 kPa | 980.9 kg/m3
343.16 K, 34350 kPa | 980.9 kg/m3
343.16 K, 34356 kPa | 980.9 kg/m3
343.16 K, 34361 kPa | 980.9 kg/m3
343.16 K, 34363 kPa | 980.9 kg/m3
343.16 K, 34369 kPa | 981 kg/m3
343.17 K, 21206 kPa | 972.4 kg/m3
343.17 K, 30224 kPa | 978.4 kg/m3
343.17 K, 30254 kPa | 978.3 kg/m3
343.17 K, 30283 kPa | 978.4 kg/m3
343.17 K, 30312 kPa | 978.5 kg/m3
343.17 K, 30333 kPa | 978.4 kg/m3
343.17 K, 30358 kPa | 978.5 kg/m3
343.17 K, 30380 kPa | 978.5 kg/m3
343.17 K, 30402 kPa | 978.4 kg/m3
343.17 K, 30428 kPa | 978.5 kg/m3
343.17 K, 30449 kPa | 978.5 kg/m3
343.17 K, 30471 kPa | 978.6 kg/m3
343.17 K, 30497 kPa | 978.5 kg/m3
343.17 K, 31456 kPa | 979.2 kg/m3
